A short description of data set [1]: Body weight and behaviour observed during the administration period. The format is in vivo, mouse. How it is done:
L-ethylcysteine hydrochloride was orally administered to aged mice from 40 to 79 weeks of age. The dose was 1000 mg/kg/day.
Ambroxol hydrochloride was orally administered to aged mice from 50 to 77 weeks of age. The dose was 9.21 mg/kg/day.

In another data set the test system is C2C12 cells. In words: Gene expression in cultured C2C12 cells, treated versus untreated. It counts as cell-based, mouse. To be noted: treated vs untreated cells; Q<0.05; FIG. 13. How it is done: C2C12 cells, which are derived from striated muscle of mice, were cultured and treated with ambroxol hydrochloride.
Data set [2] deals with gene expression in (gastrocnemius or soleus) muscle. In words: Genetic analysis (RNA-seq) of muscle of administered aged mice. It counts as in vivo, mouse. To be noted: FDR <0.05. The text has this: The procedure and reagents used are as follows. The quality of all reads was checked using FastQC v0.11.8 and low-quality reads were removed using Trimmomatic (ver 0.38). LEADING: 20 (cut bases off the start of a read if quality score is less than 20), TRAILING: 20, SLIDING WINDOW: 4:15 (window size 4, average quality 15), MINLEN: 36 (drop reads if the length is less than […]) Each read obtained after filtering was mapped to the reference genome GRCm38 using STAR (ver2.7.0.f). Mapping was performed using the default values of STAR. Since the reads were paired-end with a length of 150 bp, a STAR index for reference genome GRCm38 was created in accordance with the length of 150 to perform mapping. Index generation was performed as follows: • Run Mode; genomeGenerate • Reference; GRCm38 • Annotation file; genecode version M24 • sjdbOverhang; 150 • alignment was performed using the index generated above. • Other than the foregoing, no options were added and the default values were used. • (Basic options were as follows.) • genomeDir; index generated above […] At this time, gene symbols as defined in genecode version M24 were counted. Regarding the calculated count numbers, genes with count data of 0 in all samples were filtered, TMM normalization was performed using edgeR (ver3.22.3), and correction between samples was performed. First, to obtain an overview of the data, principal component analysis and clustering analysis were performed using the count data after removing low-expressing genes. Expression changes of the specified patterns were compared based on the obtained expression values. edgeR was used to test for differentially expressed genes. […] Gene enrichment analysis was performed on the obtained variable genes using gprofiler2 (version 0.1.6). The expression values of the obtained differentially expressed genes were normalized, then extracted and visually depicted as a heat map to confirm the differential expressions. […] This analysis was performed using […] 1.8.0). In […], analysis was performed using a mouse database relating to 10 kbp upstream the TSS, stored in […]. Details of the analysis are as follows (cited from https://scenic.aertslab.org/tutorials/[…]). In the present example, gene regulation involved in the ambroxol hydrochloride of the present invention was investigated using model mice to identify genes useful for the diagnosis and treatment of sarcopenia, in the same manner as in Example 1. […] From the analysis of upstream transcription factors shown in FIG. 12, new transcription factors involved in differentiation and cellular senescence were observed as upstream factors.

The test system of data set [3] is aged mice. In words: Contextual fear conditional (CFC) test of fear memory. It counts as in vivo, mouse. The note with it: 77-week-old aged mice after ambroxol hydrochloride administration; vs PBS; FIG. 8. How it is done:
Cognition and memory of the 77-week-old aged mice of Example 2-2 were evaluated by means of a contextual fear conditional (CFC) test. In the cognition and memory experiment, memory is evaluated in two ways: fear memory and spatial memory; fear memory is evaluated based on the time the subject freezes and stops moving after receiving an electric shock. […] Regarding spatial memory, when a mouse is placed on a white disk and a strong light is illuminated thereon, the mouse, which is nocturnal, will try to escape to a dark place. The disk has 20 holes, of which 19 are blocked and only one through which escape is possible. The mouse is then trained for six days to memorize the location of that one hole. The degree to which the mouse could remember the location of the hole was evaluated one day later and one week later (reference: https://www.nature.com/protocolexchange/protocols/349Reiserer).
In this example, fear memory was evaluated using the CFC test. Fear memory was assessed by CFC after administration of ambroxol hydrochloride to 77-week-old, aged mice of Example 2-2.

For data set [4], the system named is model mice (C57BL/6J). In words: Grip test with muscle strength measuring device (MK-380S). It counts as in vivo, mouse. The note with it: oral 1000 mg/kg/day from 50 to 81 weeks of age; FIG. 19. As for the experimental part: (§1) Grip strength was evaluated by means of a measurement of grip strength called the grip test, using a muscle strength measuring device (Muromachi Kikai, MK-380S). Specifically, the mouse was made to grasp a mesh made of wire (wire mesh) with its front and back legs, and its tail was pulled back horizontally little by little until the mouse released the wire mesh. The maximum muscle strength at that time was measured.

The test system of data set [5] is model mice (C57BL/6J). In words: Frailty index test. The format is in vivo, mouse. As for the experimental part: The above model mice were orally administered 1000 mg/kg/day of ambroxol hydrochloride from 50 to 81 weeks of age, and frailty associated with aging was confirmed by means of a frailty index test. The evaluated items of the frailty index test are as follows, and an evaluation standard in accordance with clinical symptoms (0=no symptoms, 0.5=mild symptoms, 1=severe symptoms) was employed. • Hair, skin • Alopecia Whether there is hair loss • Loss of fur color Change in fur color from black to gray, brown, or white • Dermatitis Whether there is skin inflammation • Loss of whiskers Loss of hair and whiskers around nose • Coat condition Condition of coat, smoothness and shine of fur • Physical/musculoskeletal • Tumors Presence/absence of tumor • Distended abdomen Abdomen enlarged compared to surrounding • Kyphosis Check by stroking back • Tail stiffening Whether tail wraps freely when stroked, stiffness • Gait disorder Difficulty in walking, wide stance • Tremor Whether there are age-related tremors • Forelimb grip strength Strength of grip on wire mesh when pulled by the tail • Body condition score Check visual signs of bony protuberance, muscle wasting, obesity • Vestibulocochlear/auditory • Vestibular disturbance Balance, orientation, acceleration • Hearing loss Whether there is response when clicker is sounded from behind • Ocular/nasal • Cataracts Clouding of lens of eye • Corneal opacity Cloudy cornea • Eye discharge/swelling Eyes swollen, abnormal secretions or crusting • Microphthalmia One or both eyes are small and/or sunken • Vision loss Whether the mouse reaches toward the ground when lowered by the tail (also use a ruler) • Menace reflex Whether there is response when foreign object is brought near eyes • Nasal discharge Whether there is nasal discharge • Digestive/urogenital • Malocclusion Whether there are malocclusions or overgrown teeth • Rectal prolapse Whether there is protrusion of rectum • Vaginal/uterine/penile prolapse Check genitals • Diarrhea Check cage bedding • Respiratory • Breathing rate/depth Check for dyspnea, breath sounds (rales), tachypnea, • Discomfort • Mouse Grimace Scale Assess nose bulge, cheek bulge, ear angle, whisker change • Piloerection Whether there is stiff hair or bristling even when stroked • Other (compared to reference values) • Temperature Take average of two readings • Weight Measure weight
as §1
The above model mice were given 307.2 mg/kg/day of L-carbocysteine in drinking water for 23 weeks starting at the age of 49 weeks, and frailty index test was performed as in Example 2-5 above to confirm age-related frailty and the like.

The test system of a further data set is aged mice (C57BL/6J). In words: Treadmill test of muscle strength (endurance) in aged mice. It counts as in vivo, mouse. The note with it: vs PBS. From the text: To confirm that muscle strength decline would be observed in model mice (C57BL/6J) (purchased from ORIENTAL YEAST), muscle strength (endurance) in 79-week-old aged mice was checked in a treadmill test as follows.
Before recording performance, the mice were trained for three days so as to become familiarized with the equipment. An electrical stimulation grid was adjusted to 1 mA and the gradient was set to 15 degrees. On the first day of training, the mice were made to walk on the treadmill for 10 min at a speed of 10 m/min, rest for 10 min, and then walk for 10 min at a speed of 10 m/min. On the second and third days, the first two steps were performed under the same conditions as on the first day, after which walking was started at 10 m/min, and then increasing the speed by 1 m/min each minute up to a maximum speed of 20 m/min. Maximum exercise endurance was measured on the fourth day. Six mice were placed on the treadmill and the belt speed was started at 5 m/min for 5 min to warm up the mice. The speed was increased by 1 m/min to a maximum of 20 m/min. After 5 minutes of running, the speed was increased from 20 m/min to 21 m/min for 10 minutes. The mice were then forced to run at 22 m/min until they remained on the electrical stimulation grid for 10 seconds, and the distance they ran until they remained for 10 seconds was measured. […]

The subject of data set [6] is aged mice. In words: Muscle mass in aged mice, with or without exercise. It counts as in vivo, mouse.
[7] abbreviates: mice administered ambroxol hydrochloride, FIG. 9.
Setting [8] is: aged mice administered L-ethylcysteine hydrochloride, FIG. 2.

Counter-ions that a name gives are not always drawn.

`Nc1c(Br)cc(Br)cc1CNC1CCC(O)CC1` (stereo not shown) [Ambroxol hydrochloride, ambroxol hydrochloride]: the “changes in body weight or behavioral abnormalities during administration” value in data set [1] (oral 9.21 mg/kg/day, 50 to 77 weeks of age) is on record as “no significant changes in body weight or behavioral abnormalities”. In the data set with C2C12 cells, the “number of genes with decreased expression in C2C12 cells” value came out at 54 genes and the “number of genes with increased expression in C2C12 cells” value amounted to 53 genes. Besides, in data set [2] (setting [7]), the “number of genes with decreased expression in muscle” value was found to be 204 genes and the “number of genes with increased expression in muscle” value turned out to be 164 genes. Moreover, the “CFC Freezing scores / cognitive performance” value in the data set with aged mice [3] is “improved CFC Freezing scores and increased cognitive performance”. The “muscle strength (grip strength)” value with model mice (C57BL/6J) [4] is listed as “improved”. Moreover, in the data set on model mice (C57BL/6J) [5] (oral 1000 mg/kg/day from 50 to 81 weeks of age), the “frailty index: coat condition” value is reported as “improved”. Moreover, the “frailty index: skin condition (hair, skin)” value in the data set with model mice (C57BL/6J) [5] (oral 1000 mg/kg/day from 50 to 81 weeks of age, FIG. 18) is “improved”. Besides, in the data set with model mice (C57BL/6J) [5] (oral 1000 mg/kg/day from 50 to 81 weeks of age, FIG. 20), the “frailty index: osteoporosis (physical/musculoskeletal)” value is recorded as “improved”. Further, the “muscle strength (endurance) by treadmill test” value with aged mice (C57BL/6J) (oral 9.21 mg/kg/day from 50 to 77 weeks of age, measured at 77 weeks, FIG. 7) is reported as “increase in muscle strength”.

Regarding `CCOC(=O)[C@@H](N)CS` [L-ethylcysteine hydrochloride], the “changes in body weight or behavioral abnormalities during administration” value in data set [1] (oral 1000 mg/kg/day, 40 to 79 weeks of age) is recorded as “no significant changes in body weight or behavioral abnormalities”. Also, in data set [2] (setting [8]), the “number of genes with decreased expression in muscle” value amounted to 92 genes and the “number of genes with increased expression in muscle” value is 158 genes. For the same compound, the “muscle mass in aged mice” value in the data set on aged mice [6] (administration alone) is on record as “increased muscle mass”. Further, the “muscle mass in aged mice” value in the data set on aged mice [6] (administration in combination with exercise) is reported as “significantly restored muscle mass”. Besides, the “muscle strength (endurance) by treadmill test” value with aged mice (C57BL/6J) (oral 1000 mg/kg/day from 40 to 79 weeks of age, measured at 79 weeks, FIG. 1) is listed as “increase in muscle strength”.

As for `N[C@@H](CSCC(=O)O)C(=O)O` [L-carbocysteine], the “frailty index: dermatitis” value with model mice (C57BL/6J) [5] (307.2 mg/kg/day in drinking water for 23 weeks from 49 weeks of age) is “improves”. In the data set with model mice (C57BL/6J) [5] (307.2 mg/kg/day in drinking water for 23 weeks from 49 weeks of age, FIG. 22), the “frailty index: alopecia” value is “improves”. The “frailty index: fur color loss (gray hair)” value with model mice (C57BL/6J) [5] (307.2 mg/kg/day in drinking water for 23 weeks from 49 weeks of age, FIG. 23) was “improves”. Further, in the data set with model mice (C57BL/6J) [5] (307.2 mg/kg/day in drinking water for 23 weeks from 49 weeks of age, FIG. 25), the “frailty index: physical condition score (bone and muscle)” value is “improvement in physical condition”. For the same compound, in the data set on model mice (C57BL/6J) [5] (307.2 mg/kg/day in drinking water for 23 weeks from 49 weeks of age, FIG. 26), the “total score of the frailty index test” value is given as “improvement in the total value”.
